Assay results: PMC3707936 (Molecular cancer therapeutics, 2013)
Like-named read-outs stand apart in the source and are kept apart here.

What was measured:
phospho-AKT (Ser473) = assay: Western blot, phospho-AKT; format: cell-based; conditions: GIST 882 cells, all auranofin treatments, 6 h; site not specified
[1] = system: phospho-ERK1/2 (Thr202/Tyr204); assay: Western blot, phospho-ERK1/2 in GIST cells; format: cell-based; conditions: for pERK1/2 level, fold change: GIST T1-10R cells, 6 hours
phospho-c-KIT (Tyr719) = assay: Western blot, phospho-c-KIT in GIST cells; format: cell-based
GIST 882 cells [2] = assay: Early apoptosis assay; format: cell-based; conditions: GIST 882, 1 μM, 24 h, Annexin V
GIST-T1 cells [3] = assay: Hit validation cell proliferation, 12-point dose-response, GIST-T1; format: cell-based
GIST-T1 cells [4] = assay: Quantitative drug screen, CellTiter-Blue cell viability, GIST-T1; format: cell-based; conditions: read-out: IC50 GIST-T1; primary screen, 72 h, 10 μM to […] twofold dilutions; * = IC50 < 0.07 μM and drug showed no dose response
[5] = system: thioredoxin reductase (TrxR); conditions: for TrxR activity: 6 h
GIST T1-10R cells [6] = assay: Early apoptosis assay; format: cell-based; conditions: 1 μM, 24 h, Annexin V
GIST T1-10R cells [7] = assay: Hit validation cell proliferation, 12-point dose-response, GIST T1-10R; format: cell-based
[8] = system: reactive oxygen species (ROS); assay: Intracellular ROS activity measurement; format: cell-based
GIST-T1 cells [9] = assay: Early apoptosis assay; format: cell-based; conditions: GIST-T1, 1 μM, 24 h, Annexin V
Caspase 3/7 = Caspase 3/7 activity assay in GIST cells; format: cell-based; conditions: 0.1 and 1 μM, 72 hours
GIST 882 cells [10] = assay: Hit validation cell proliferation, 12-point dose-response, GIST 882; format: cell-based; conditions: GIST 882, 1 μM, 72 hour
[11] = GIST 882 cells, all auranofin treatments, 6 h

Which results are given for `CC(=O)OC[C@H]1O[C@@H]([S-])[C@H](OC(C)=O)[C@@H](OC(C)=O)[C@@H]1OC(C)=O.CCP(CC)CC.[Au+]` [Auranofin]?
phosphorylated level of AKT (phospho-AKT (Ser473)): does not noticeably alter; phosphorylated level of ERK [1, 11]: does not noticeably alter; pERK1/2 level, fold change ([1]; 0.01 μM): ~ 3.0 fold; pERK1/2 level, fold change ([1]; 0.1 μM): ~ 3.6 fold; pERK1/2 level, fold change ([1]; 1 μM): ~ 2.7 fold; pERK1/2 level, fold change ([1]; 010 μM): ~ 2.4 fold; phosphorylated level of cKIT (phospho-c-KIT (Tyr719); [11]): does not noticeably alter; p-cKT level, fold change (phospho-c-KIT (Tyr719); GIST-T1 cells, 1 or 10 μM, 6 hours): ~ 0.5 fold; fraction of early apoptotic cells, fold increase (GIST 882 cells [2]): ~ 2.3 fold; cell viability (GIST-T1 cells [3]; GIST-T1, 1 μM, 72 hour): decrease in cell viability; cell proliferation induced by low-dose treatment, fold (GIST-T1 cells [3]; GIST-T1, low-dose, 72 hour): 1.1–1.2 fold; IC50 (GIST-T1 cells [3]; read-out: IC50 GIST-T1, hit validation, 12-point 20 μM to 1 nM, triplicate, 72 h): 0.25 ± 0.15 µM; IC50 (GIST-T1 cells [4]): 0.23 µM; TrxR activity ([5]; GIST T1-10R cells, 0.01 and 0.1 μM): significant decrease; TrxR activity ([5]; all three GIST cell lines, 1.0 and 10 μM): dramatically reduces; TrxR enzymatic activity ([5]; exposure up to 24 hours at 1 μM): inhibited; fraction of early apoptotic cells, fold increase (GIST T1-10R cells [6]): ~ 2.8 fold; cell viability (GIST T1-10R cells [7]; GIST T1-10R, 1 μM, 72 hour): decrease in cell viability; cell proliferation induced by low-dose treatment, fold (GIST T1-10R cells [7]; GIST T1-10R, low-dose, 72 hour): 1.1–1.2 fold; IC50 (GIST T1-10R cells [7]; read-out: IC50 GIST T1-10R, hit validation, 12-point 20 μM to 1 nM, triplicate, 72 h): 0.02 ± 0.01 µM; ROS production, fold change ([8]; GIST 882 cells, 1 and 10 μM, 6 h): 1.5 fold; ROS, fold change vs vehicle-treated cells ([8]; GIST 882 cells, across all auranofin treatments): ~ 1.5 fold; ROS formation, fold change ([8]; GIST T1-10R cells, 1 and 10 μM, 6 h): 2.6 fold; ROS ([8]; all three GIST cell lines, 0.01 and 0.1 μM, 6 h): remained relatively stable; ROS production with longer treatment ([8]; all three GIST cell lines, longer treatment): induces higher production of ROS; fraction of early apoptotic cells, fold increase (GIST-T1 cells [9]): ~ 4 fold; Caspase 3/7 activity (Caspase 3/7): able to increase; cell viability (GIST 882 cells [10]): decrease in cell viability
